From ChEMBL document CHEMBL4011592, “Synthesis and evaluation of 7-substituted-5,6-dihydrobenzo[c]acridine derivatives as new c-KIT promoter G-quadruplex binding ligands” (Eur J Med Chem, 2017)
Values belong to the compound of their own block, whether it stands above or below them. Calls of active or inactive are those of the source. The rule behind the calls is not given here.

Assays:
[1] = species: Homo sapiens; experiment: Binding affinity to c-KIT G-quadruplex DNA in human K562 cells assessed as reduction in c-KIT mRNA level at 0.5 uM after 48 hrs by RT-PCR analysis; type: cell-based
[2] = Binding affinity to F10T duplex DNA (unknown origin) assessed as change in melting temperature at 2 uM by FRET assay
[3] = Binding affinity to F10T duplex DNA (unknown origin) assessed as change in melting temperature at 1 uM by FRET assay
[4] = Binding affinity to 5'-FAM labelled c-KIT1 G-quadruplex DNA (unknown origin) by microscale thermophoresis
[5] = Selectivity ratio of Kd for biotinylated duplex DNA (unknown origin) to Kd for biotinylated c-KIT1 G-quadruplex DNA (unknown origin)
[6] = Binding affinity to c-KIT1 G-quadruplex DNA (unknown origin) assessed as 1:1 binding stoichiometry between compound and G-quadruplex DNA 10 uM by ESI-MS spectra analysis
[7] = system: K562; experiment: Induction of apoptosis in human K562 cells assessed as increase in late apoptotic cells after 48 hrs by flow cytometric method; type: functional, cell-based
[8] = system: K562; experiment: Effect on total c-KIT protein level in human K562 cells at 9 uM after 48 hrs by Western blot analysis; type: ADME, cell-based; settings: k562, 48 h
[9] = system: K562; experiment: Cytotoxicity against human K562 cells after 48 hrs by MTT assay; type: functional, cell-based; settings: K562, 48 h
[10] = Binding affinity to c-KIT1 G-quadruplex DNA (unknown origin) assessed as hyperchromicity at 10 uM measured after 10 mins by UV-vis spectroscopic method
[11] = Binding affinity to 5'-FAM/3'-TAMARA labelled c-KIT1 G-quadruplex DNA (unknown origin) assessed as change in melting temperature at 2 uM in presence ds26 DNA by FRET assay
[12] = species: Homo sapiens; experiment: Binding affinity to c-KIT G-quadruplex DNA in human K562 cells assessed as reduction in c-KIT mRNA level at 9 uM after 48 hrs by RT-PCR analysis relative to control; type: cell-based; set-up: scale not given: the % may be the effect or the level left
[13] = Binding affinity to c-KIT1 G-quadruplex DNA (unknown origin) assessed as hyperchromicity at 5 uM measured after 10 mins by fluorescence spectroscopic method
[14] = system: K562; experiment: Cytotoxicity against human K562 cells expressing c-KIT measured up to 3 days by Annexin V-FITC/propidium iodide staining based assay; type: functional, cell-based
[15] = system: K562; experiment: Induction of apoptosis in human K562 cells assessed as late apoptotic cells at 1 uM after 48 hrs by flow cytometric method (reference value: 0.1 %); type: functional
[16] = system: K562; experiment: Induction of apoptosis in human K562 cells assessed as late apoptotic cells at 6 uM after 48 hrs by flow cytometric method (reference value: 0.1 %); type: functional
[17] = system: K562; experiment: Induction of apoptosis in human K562 cells assessed as increase in cleaved PARP level at 1 to 9 uM after 48 hrs by Western blot analysis; type: functional, cell-based
[18] = Binding affinity to c-KIT1 G-quadruplex DNA (unknown origin) assessed as 1:1 binding stoichiometry between compound and G-quadruplex DNA by Job's plot method
[19] = system: K562; experiment: Induction of apoptosis in human K562 cells assessed as late apoptotic cells at 9 uM after 48 hrs by flow cytometric method (reference value: 0.1 %); type: functional
[20] = Binding affinity to c-KIT1 G-quadruplex DNA (unknown origin) assessed as isosbestic point at 10 uM measured after 10 mins by UV-vis spectroscopic method
[21] = system: BJ; experiment: Cytotoxicity against human BJ cells after 48 hrs by MTT assay; type: cell-based
[22] = Binding affinity to 5'-FAM/3'-TAMARA labelled c-KIT1 G-quadruplex DNA (unknown origin) assessed as change in melting temperature at 1 uM by FRET assay
[23] = Binding affinity to 5'-FAM/3'-TAMARA labelled c-KIT1 G-quadruplex DNA (unknown origin) assessed as change in melting temperature at 2 uM by FRET assay
[24] = system: HeLa; experiment: Cytotoxicity against human HeLa cells after 48 hrs by MTT assay; type: functional, cell-based
[25] = species: Homo sapiens; experiment: Binding affinity to c-KIT G-quadruplex DNA in human K562 cells assessed as reduction in c-KIT mRNA level after 48 hrs by RT-PCR analysis; type: cell-based
[26] = Binding affinity to c-KIT1 G-quadruplex DNA (unknown origin) measured after 10 mins by UV-vis spectroscopic method
[27] = Binding affinity to c-KIT1 G-quadruplex DNA (unknown origin) assessed as red shift at 10 uM measured after 10 mins by UV-vis spectroscopic method
[28] = system: K562; experiment: Induction of apoptosis in human K562 cells assessed as late apoptotic cells at 3 uM after 48 hrs by flow cytometric method (reference value: 0.1 %); type: functional
[29] = system: K562; experiment: Induction of apoptosis in human K562 cells assessed as increase in Bad expression after 48 hrs by Western blot analysis; type: functional, cell-based
[30] = Binding affinity to biotinylated c-KIT1 G-quadruplex DNA (unknown origin) by SPR assay
[31] = system: K562; experiment: Induction of apoptosis in human K562 cells assessed as increase in Bax expression after 48 hrs by Western blot analysis; type: functional, cell-based
[32] = Binding affinity to c-KIT2 G-quadruplex DNA (unknown origin) assessed as ability to promote c-KIT G-rich sequences to form parallel G-quadruplex at 25 uM in absence of KCl measured after 10 mins by CD-spectroscopic analysis
[33] = system: A549; experiment: Cytotoxicity against human A549 cells after 48 hrs by MTT assay; type: functional, cell-based; settings: A549, 48 h
[34] = Binding affinity to biotinylated duplex DNA (unknown origin) by SPR assay
[35] = Binding affinity to c-KIT2 G-quadruplex DNA (unknown origin) assessed as maintainance of parallel c-KIT G-quadruplex conformation at 5 uM in presence of KCl measured after 10 mins by CD-spectroscopic analysis
[36] = species: Homo sapiens; experiment: Binding affinity to c-KIT G-quadruplex DNA in human K562 cells assessed as reduction in c-KIT protein level after 48 hrs by Western blot analysis; type: cell-based
[37] = Binding affinity to 5'-FAM labelled duplex DNA (unknown origin) by microscale thermophoresis
[38] = Binding affinity to 5'-FAM/3'-TAMARA labelled c-KIT2 G-quadruplex DNA (unknown origin) assessed as change in melting temperature at 1 uM by FRET assay
[39] = system: K562; experiment: Induction of apoptosis in human K562 cells assessed as upregulation of cleaved caspase-3 at 1 to 9 uM after 48 hrs by Western blot analysis; type: functional, cell-based
[40] = Binding affinity to c-KIT1 G-quadruplex DNA (unknown origin) assessed as ability to promote c-KIT G-rich sequences to form parallel G-quadruplex at 25 uM in absence of KCl measured after 10 mins by CD-spectroscopic analysis
[41] = system: K562; experiment: Induction of apoptosis in human K562 cells assessed as decrease in Bcl-2 expression at 1 to 9 uM after 48 hrs by Western blot analysis; type: functional, cell-based
[42] = Binding affinity to c-KIT1 G-quadruplex DNA (unknown origin) assessed as maintainance of parallel c-KIT G-quadruplex conformation at 5 uM in presence of KCl measured after 10 mins by CD-spectroscopic analysis

SMILES: Cc1ccc(NC(=O)c2ccc(CN3CCN(C)CC3)cc2)cc1Nc1nccc(-c2cccnc2)n1
Activity [1]: inactive

ΔTm [2]: 1.2 °C | ΔTm [3]: 0.6 °C | Kd [4]: 1.5 µM | Selectivity ratio [5]: > 4.3 | Activity [6]: Active | Activity [10]: Active | Activity [11]: Active | Activity [13]: Active | Activity [18]: Active | Activity [20]: Active | ΔTm [22]: 11.9 °C | ΔTm [23]: 15.9 °C | Kd [26]: 3.3 µM | Activity [27]: Active | Kd [30]: 4.7 µM | Activity [32]: Active | Kd [34]: > 20 µM | Activity [35]: Active | Kd [37]: 10.5 µM | ΔTm [38]: 5.4 °C | Activity [40]: Active | Activity [42]: Active
SMILES: CCN(CC)CCCNc1c2c(nc3ccccc13)-c1cc(OC)c(OC)cc1CC2
Activity [7]: Dose-dependent effect | Activity [8]: Non-Toxic | IC50 [9]: 9.2 µM | Activity [12]: 52% | Activity [14]: Dose-dependent effect | Activity [15]: 1.8% | Activity [16]: 8.4% | Activity [17]: Active | Activity [19]: 64.8% | IC50 [21]: 29.4 µM | IC50 [24]: 3.2 µM | Activity [25]: Dose-dependent effect | Activity [28]: 3.6% | Activity [29]: Dose-dependent effect | Activity [31]: Dose-dependent effect | IC50 [33]: 5.7 µM | Activity [36]: Dose-dependent effect | Activity [39]: Active | Activity [41]: Active
